Source: ChEMBL document CHEMBL1201862, “PubChem BioAssay data set” (2004)
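Following 48 hours of exposure in 96-well plates, responses at five concentrations were used to interpolate endpoints linearly. GI50 is the concentration that inhibits growth by half.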 Active and inactive are the calls of the source. Cut-off read from the data, not from the text of the source: active = GI50 up to about 1.1 µM and inactive = higher. Where a SMILES comes first, the peptide text is derived from it. [ ]: non-standard residue; d: D form. The star is where a group is joined. Phe(2-OMe) = COc1ccccc1C[CH](N)C(=O)O; Cbz = O=C(OCc1ccccc1)*; OBn = c1ccc(CO*)cc1

How the values were obtained:
Test in all cases: NCI anticancer screen, dose series, 48 h
BT-549 = system: BT-549
OVCAR-5 = system: OVCAR-5
SF-268 = system: SF-268
MDA-MB-231 = system: MDA-MB-231
UACC-257 = system: UACC-257
HL-60 = system: HL-60
786-0 = system: 786-0
SN12C = system: SN12C
NCI-H226 = system: NCI-H226
SNB-75 = system: SNB-75
K562 = system: K562
SF-539 = system: SF-539
CCRF-CEM = system: CCRF-CEM
MDA-N = system: MDA-N
KM12 = system: KM12
MOLT-4 = system: MOLT-4
EKVX = system: EKVX
Malme-3M = system: Malme-3M
HCC 2998 = system: HCC 2998

| Structure (SMILES) | GI50 (BT-549) | GI50 (OVCAR-5) | GI50 (SF-268) | GI50 (MDA-MB-231) | GI50 (UACC-257) | GI50 (HL-60) | GI50 (786-0) | GI50 (SN12C) | GI50 (NCI-H226) | GI50 (SNB-75) | GI50 (K562) | GI50 (SF-539) | GI50 (CCRF-CEM) | GI50 (MDA-N) | GI50 (KM12) | GI50 (MOLT-4) | GI50 (EKVX) | GI50 (Malme-3M) | GI50 (HCC 2998) |
| --- | --- | --- | --- | --- | --- | --- | --- | --- | --- | --- | --- | --- | --- | --- | --- | --- | --- | --- | --- |
| COc1ccc(/C=C2\N=C(SC)N(C)C2=O)cc1 | > 100 µM (inactive) | 95.7 µM (inactive) | 28.1 µM (inactive) | 41.2 µM (inactive) | > 100 µM (inactive) | 27.5 µM (inactive) | 68.7 µM (inactive) | 71.6 µM (inactive) | 47.3 µM (inactive) | 41.6 µM (inactive) | 50.9 µM (inactive) | 92 µM (inactive) | > 100 µM (inactive) | – | – | – | – | – | – |
| N#Cc1nc(-c2ccsc2)oc1N | – | > 100 µM (inactive) | > 100 µM (inactive) | > 100 µM (inactive) | > 100 µM (inactive) | > 100 µM (inactive) | > 100 µM (inactive) | > 100 µM (inactive) | – | 57 µM (inactive) | > 100 µM (inactive) | – | > 100 µM (inactive) | > 100 µM (inactive) | > 100 µM (inactive) | > 100 µM (inactive) | > 100 µM (inactive) | – | – |
| C#C[C@@]1(O)CCCC2=CC3(CC[C@]21C)SCCS3 | – | > 100 µM (inactive) | > 100 µM (inactive) | > 100 µM (inactive) | > 100 µM (inactive) | 45.6 µM (inactive) | > 100 µM (inactive) | > 100 µM (inactive) | > 100 µM (inactive) | – | > 100 µM (inactive) | > 100 µM (inactive) | – | > 100 µM (inactive) | > 100 µM (inactive) | > 100 µM (inactive) | > 100 µM (inactive) | > 100 µM (inactive) | > 100 µM (inactive) |
| O=C1C2CC=CCC2C(=O)N1n1c(-c2ccccc2)n[nH]c1=O (stereo not drawn) | > 100 µM (inactive) | > 100 µM (inactive) | > 100 µM (inactive) | > 100 µM (inactive) | > 100 µM (inactive) | – | > 100 µM (inactive) | > 100 µM (inactive) | > 100 µM (inactive) | – | > 100 µM (inactive) | > 100 µM (inactive) | > 100 µM (inactive) | > 100 µM (inactive) | > 100 µM (inactive) | > 100 µM (inactive) | > 100 µM (inactive) | > 100 µM (inactive) | > 100 µM (inactive) |
| O=[N+]([O-])c1ccc(N2CCC(CCCC3CCN(c4ccc([N+](=O)[O-])cc4[N+](=O)[O-])CC3)CC2)c([N+](=O)[O-])c1 | 24.4 µM (inactive) | 16.4 µM (inactive) | 20 µM (inactive) | 18.7 µM (inactive) | 14.6 µM (inactive) | 15.4 µM (inactive) | 14.5 µM (inactive) | 32.1 µM (inactive) | 25.6 µM (inactive) | 14.7 µM (inactive) | 22.3 µM (inactive) | 18.4 µM (inactive) | 13.7 µM (inactive) | 16.1 µM (inactive) | 16.7 µM (inactive) | 23.3 µM (inactive) | 15.8 µM (inactive) | 19.1 µM (inactive) | – |
| CC(CCCC1SCC2NC(=O)NC21)C(=O)O (stereo not drawn) | > 100 µM (inactive) | > 100 µM (inactive) | > 100 µM (inactive) | > 100 µM (inactive) | – | > 100 µM (inactive) | > 100 µM (inactive) | > 100 µM (inactive) | > 100 µM (inactive) | > 100 µM (inactive) | > 100 µM (inactive) | > 100 µM (inactive) | – | > 100 µM (inactive) | > 100 µM (inactive) | > 100 µM (inactive) | > 100 µM (inactive) | > 100 µM (inactive) | – |
| COc1nc(NC2OC(COC(C)=O)C(OC(C)=O)C(OC(C)=O)C2OC(C)=O)c2c(OC(C)=O)c(C)c(=O)oc2n1 (stereo not drawn) | – | > 100 µM (inactive) | – | – | > 100 µM (inactive) | > 100 µM (inactive) | > 100 µM (inactive) | > 100 µM (inactive) | > 100 µM (inactive) | > 100 µM (inactive) | > 100 µM (inactive) | > 100 µM (inactive) | > 100 µM (inactive) | – | > 100 µM (inactive) | > 100 µM (inactive) | > 100 µM (inactive) | > 100 µM (inactive) | > 100 µM (inactive) |
| COc1ccc2c(c1)C(N)CC2=O (stereo not drawn) | > 100 µM (inactive) | > 100 µM (inactive) | > 100 µM (inactive) | > 100 µM (inactive) | > 100 µM (inactive) | – | > 100 µM (inactive) | > 100 µM (inactive) | > 100 µM (inactive) | > 100 µM (inactive) | > 100 µM (inactive) | > 100 µM (inactive) | > 100 µM (inactive) | – | > 100 µM (inactive) | > 100 µM (inactive) | > 100 µM (inactive) | – | > 100 µM (inactive) |
| COC1CC(OC)C(O)C(CO)O1 (stereo not drawn) | – | > 100 µM (inactive) | – | – | > 100 µM (inactive) | > 100 µM (inactive) | > 100 µM (inactive) | > 100 µM (inactive) | – | > 100 µM (inactive) | > 100 µM (inactive) | > 100 µM (inactive) | > 100 µM (inactive) | – | > 100 µM (inactive) | > 100 µM (inactive) | > 100 µM (inactive) | > 100 µM (inactive) | > 100 µM (inactive) |
| Cc1c2cnccc2nc2[nH]c3ccncc3c12 | 6.92 µM (inactive) | 5.62 µM (inactive) | 2.47 µM (inactive) | 55 µM (inactive) | 20.1 µM (inactive) | 19.9 µM (inactive) | 3.24 µM (inactive) | 3.33 µM (inactive) | – | > 100 µM (inactive) | 10.8 µM (inactive) | 6.73 µM (inactive) | 5.75 µM (inactive) | 10.6 µM (inactive) | 6.79 µM (inactive) | 6.31 µM (inactive) | 16 µM (inactive) | 3.33 µM (inactive) | – |
| COc1cc2c(/C=C3/C(=O)Nc4ccc(O)cc43)c(Cl)n(Cc3ccccc3)c2cc1C | – | 2.1 µM (inactive) | 0.678 µM (active) | 6 µM (inactive) | 0.818 µM (active) | 0.306 µM (active) | 0.222 µM (active) | 6.17 µM (inactive) | 0.948 µM (active) | 0.979 µM (active) | 0.583 µM (active) | 0.392 µM (active) | 0.873 µM (active) | – | 0.265 µM (active) | 1.13 µM (inactive) | 5.62 µM (inactive) | 0.24 µM (active) | – |
| Cn1c(-c2ccc(/N=N/Nc3ccc(-c4n[nH]c(=S)n4C)cc3)cc2)n[nH]c1=S | 3.9 µM (inactive) | > 100 µM (inactive) | 16.5 µM (inactive) | 18.8 µM (inactive) | > 100 µM (inactive) | 4.6 µM (inactive) | 52 µM (inactive) | > 100 µM (inactive) | 5.36 µM (inactive) | 16 µM (inactive) | 2.82 µM (inactive) | – | 3.98 µM (inactive) | > 100 µM (inactive) | – | 3.08 µM (inactive) | 20.6 µM (inactive) | > 100 µM (inactive) | – |
| N#Cc1nc(CN2C(=O)c3ccccc3C2=O)oc1N | – | > 100 µM (inactive) | > 100 µM (inactive) | > 100 µM (inactive) | > 100 µM (inactive) | – | > 100 µM (inactive) | > 100 µM (inactive) | > 100 µM (inactive) | > 100 µM (inactive) | > 100 µM (inactive) | > 100 µM (inactive) | > 100 µM (inactive) | > 100 µM (inactive) | > 100 µM (inactive) | > 100 µM (inactive) | – | > 100 µM (inactive) | > 100 µM (inactive) |
| CNn1c(-c2ccc(C)cc2)n[nH]c1=O | > 100 µM (inactive) | > 100 µM (inactive) | > 100 µM (inactive) | > 100 µM (inactive) | > 100 µM (inactive) | – | > 100 µM (inactive) | > 100 µM (inactive) | > 100 µM (inactive) | – | 55.8 µM (inactive) | > 100 µM (inactive) | 92 µM (inactive) | – | > 100 µM (inactive) | > 100 µM (inactive) | > 100 µM (inactive) | > 100 µM (inactive) | > 100 µM (inactive) |
| Clc1cc(-c2ccccc2)nc2ccccc12 | 18.8 µM (inactive) | > 100 µM (inactive) | 44.9 µM (inactive) | 35.4 µM (inactive) | 34.8 µM (inactive) | 22.5 µM (inactive) | 39.5 µM (inactive) | 41.1 µM (inactive) | 28.4 µM (inactive) | 28.6 µM (inactive) | 37.8 µM (inactive) | 51.4 µM (inactive) | 23.8 µM (inactive) | 26 µM (inactive) | 28.1 µM (inactive) | 22.1 µM (inactive) | 31.9 µM (inactive) | 38 µM (inactive) | – |
| NS(=O)(=O)c1nnc(NS(=O)(=O)c2ccccc2C(=O)O)s1 | > 100 µM (inactive) | > 100 µM (inactive) | > 100 µM (inactive) | > 100 µM (inactive) | > 100 µM (inactive) | – | > 100 µM (inactive) | > 100 µM (inactive) | > 100 µM (inactive) | – | 40.7 µM (inactive) | – | – | > 100 µM (inactive) | > 100 µM (inactive) | 76.7 µM (inactive) | > 100 µM (inactive) | > 100 µM (inactive) | > 100 µM (inactive) |
| COC(=O)C(Cc1ccccc1OC)NC(=O)C(CC(=O)OCc1ccccc1)NC(=O)OCc1ccccc1 (stereo not drawn) (Cbz-Asp(OBn)-[Phe(2-OMe)]-OMe; configuration not given here) | > 100 µM (inactive) | > 100 µM (inactive) | – | – | > 100 µM (inactive) | 34.5 µM (inactive) | > 100 µM (inactive) | – | > 100 µM (inactive) | > 100 µM (inactive) | 61.5 µM (inactive) | – | 38 µM (inactive) | 95.7 µM (inactive) | > 100 µM (inactive) | 33.7 µM (inactive) | > 100 µM (inactive) | > 100 µM (inactive) | > 100 µM (inactive) |
